The text below walks through data of US20250277030A1, “ANTI-NAPI2B ANTIBODIES AND METHODS OF USE” (Zymeworks BC Inc., priority 2022, published 2025).

pEC50: −log10 of the molar value.

For one assay, the target named is T1, human NaPi2b (Homo sapiens, UniProt O95436).
T1 construct: host or cells: HEK293-6e
T1 sequence (O95436 1-690): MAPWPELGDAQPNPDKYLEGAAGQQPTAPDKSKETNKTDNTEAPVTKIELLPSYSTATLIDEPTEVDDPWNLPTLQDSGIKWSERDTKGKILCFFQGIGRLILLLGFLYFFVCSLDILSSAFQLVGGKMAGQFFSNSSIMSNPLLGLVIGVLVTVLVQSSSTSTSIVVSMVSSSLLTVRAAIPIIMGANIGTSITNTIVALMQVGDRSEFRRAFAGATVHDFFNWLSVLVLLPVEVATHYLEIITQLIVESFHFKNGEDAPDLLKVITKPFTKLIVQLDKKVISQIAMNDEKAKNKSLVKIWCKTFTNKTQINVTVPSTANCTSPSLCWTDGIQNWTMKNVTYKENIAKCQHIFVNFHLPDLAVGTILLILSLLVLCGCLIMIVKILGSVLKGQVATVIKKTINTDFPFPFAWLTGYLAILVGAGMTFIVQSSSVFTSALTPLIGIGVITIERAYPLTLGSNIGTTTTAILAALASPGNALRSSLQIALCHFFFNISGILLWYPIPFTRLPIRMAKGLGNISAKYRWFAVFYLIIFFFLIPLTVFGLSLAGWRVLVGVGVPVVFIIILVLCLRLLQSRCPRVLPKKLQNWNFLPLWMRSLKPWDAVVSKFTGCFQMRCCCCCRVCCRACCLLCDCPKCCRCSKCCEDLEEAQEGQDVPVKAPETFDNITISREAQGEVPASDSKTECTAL
In words: Competition binding (epitope binning) by flow cytometry on HEK293-6e cells expressing human NaPi2b. Conditions: unlabeled competitor antibody 100 μg/mL, GFP- population. Here is the method:
Binding was assessed by flow cytometry using HEK293-6e cells as described below.
HEK293-6e cells were transfected for ˜24 hours to transiently express human NaPi2b (1 μg of pTT5-NaPi2b per 1 million cells) or transfected with GFP (ATUM, Menlo Park, CA; pD2610-v23, also 1 μg of DNA per 1 million cells). Following transfection, human NaPi2b-expressing HEK296-6e cells and transfected GFP-expressing HEK296-6e cells were mixed at 4:1 ratio. Each well of a V-bottom 96-well plate was seeded with 100,000 cells of the mixture and incubated with 100 μg/mL of unlabeled competitor anti-NaPi2b antibody for an hour on ice. Post incubation, cells were washed and stained with 1 μg/mL of AF647-conjugated anti-NaPi2b detection antibodies for an hour on ice. Following staining and washing, fluorescence was detected by flow cytometry on a BD LSRFortessa™ Cell Analyzer (BD Biosciences, Franklin Lake, NJ) with 10,000 minimum events collected per well. The AF647/APC-A GeoMean (fluorescence signal geometric mean, proportional to anti-Human AF647 binding) was calculated for the FITC/GFP negative live cell population and using FlowJo™ Version 10.8.1 (BD Biosciences, Franklin Lake, NJ). Percentage inhibition was calculated using the following formula: […]

In another assay the test system is cynomolgus NaPi2b. In words: Flow cytometry binding to HEK293-6e cells transfected with cynomolgus NaPi2b (Example 5). Conditions: transfected HEK293-6e cells, 18-24 hours at 4° C. Here is the method:
The binding cross-reactivity of humanized antibody variant v29456 to human, cynomolgus and mouse NaPi2b was assessed by flow cytometry using HEK293-6e transfected cells.
Briefly, HEK293-6e cells were transfected for ˜24 hours to transiently express human NaPi2b, cynomolgus or mouse NaPi2b, at 1 μg of DNA per 1 million cells. Following transfection, 50,000 cells per well were seeded in V-bottom 96-well plates and incubated with 200 nM of primary antibody for 18-24 hours at 4° C. to prevent internalization. Post-incubation, cells were washed and stained with anti-Human IgG Fc AF647 conjugate (Jackson Immuno Research Labs, West Grove, PA, Cat. No. 109-605-098, Lot. No. 124868) at 4° C. for 1 hour. Following staining and washing, fluorescence was detected by flow cytometry on BD LSRFortessa™ Cell Analyzer (BD Biosciences, Franklin Lake, NJ) with 10,000 minimum events collected per well. The AF647/APC-A GeoMean (fluorescence signal geometric mean, proportional to anti-Human AF647 binding) was calculated for the live singlet cell population for each primary antibody using FlowJo™ v8 software (BD Biosciences, Franklin Lake, NJ). The Bmax and Kd of each primary antibody were calculated using GraphPad Prism Version 9 (GraphPad Software, San Diego, CA)
(In flow cytometry, cells or beads pass a laser one at a time.)

The test system of another assay is OVCAR-3 cells. In words: In vitro cytotoxicity, 2D monolayer, CellTiter-Glo, OVCAR-3. The format is cell-based, human. Conditions: OVCAR-3, 4 days; IC = Incomplete Curve. Here is the method: (§1) The cytotoxicity as measured by cell growth inhibition of the humanized variant v29456 (H1L2) conjugated to various drug-linkers were assessed in a panel of NaPi2b-expressing cell lines as described below. Cell lines used were OVCAR-3 (ovarian carcinoma), IGROV-1 (ovarian carcinoma), and HCC-78 (lung carcinoma). ADCs with antibody palivizumab (anti-RSV) (v22277) were used as non-targeted controls.
(§2) OVCAR-3 were cultured in RPMI 1640 Medium, ATCC modification (Thermo Fisher Scientific, Waltham, MA) supplemented with 20% fetal bovine serum (FBS) (Thermo Fisher Scientific, Waltham, MA) and 0.01 μg/mL human insulin (Sigma-Aldrich, Oakville, ON). […] After incubation, CellTiter-Glo® reagent (Promega Corporation, Madison, WI) was added in all wells and luminescence corresponding to ATP present in each well was measured using a Synergy™H1 plate reader (BioTek Instruments, Winooski, VT). Percent cytotoxicity values were calculated by the following formula: (1−(Luminescence of Treated Cells/Average Luminescence of Untreated Cells))×100, and plotted against test article concentration using GraphPad Prism 9 software (GraphPad Software, San Diego, CA). EC50 values were calculated based on a non-linear regression log(agonist) versus response, variable slope (four parameters) by GraphPad Prism 9.
(In ATP-based viability assays light output follows the ATP content of the culture.)

Another assay concerns HCC-78 cells. Briefly: In vitro cytotoxicity, 2D monolayer, CellTiter-Glo, HCC-78. It is filed as cell-based, human. The settings on record: HCC-78, 4 days. Here is the method: as §1, §2
A further assay has as its system IGROV-1 cells. In words: In vitro cytotoxicity, 2D monolayer, CellTiter-Glo, IGROV-1. It is filed as cell-based, human. Conditions: IGROV-1, 4 days. Here is the method: as §1, §2

Chain of cynomolgus NaPi2b (as listed by the source): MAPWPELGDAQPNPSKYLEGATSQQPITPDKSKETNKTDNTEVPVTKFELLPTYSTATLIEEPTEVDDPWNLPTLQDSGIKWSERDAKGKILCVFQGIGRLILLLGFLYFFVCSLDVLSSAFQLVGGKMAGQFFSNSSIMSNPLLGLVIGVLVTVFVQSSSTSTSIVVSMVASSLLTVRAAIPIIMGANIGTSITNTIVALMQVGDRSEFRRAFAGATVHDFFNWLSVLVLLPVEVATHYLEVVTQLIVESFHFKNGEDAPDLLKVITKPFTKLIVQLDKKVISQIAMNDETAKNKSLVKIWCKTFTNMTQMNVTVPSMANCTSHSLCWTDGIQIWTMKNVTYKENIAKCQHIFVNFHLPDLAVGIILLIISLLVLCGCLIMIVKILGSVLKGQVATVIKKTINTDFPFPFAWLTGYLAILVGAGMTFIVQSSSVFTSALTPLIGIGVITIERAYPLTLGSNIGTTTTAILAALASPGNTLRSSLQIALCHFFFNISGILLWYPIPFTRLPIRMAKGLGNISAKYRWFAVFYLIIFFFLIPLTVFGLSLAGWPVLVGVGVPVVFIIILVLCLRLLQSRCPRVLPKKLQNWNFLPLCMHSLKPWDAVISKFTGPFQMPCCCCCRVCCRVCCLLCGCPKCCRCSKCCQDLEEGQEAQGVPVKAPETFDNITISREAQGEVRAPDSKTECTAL

As for “v16955: Palivizumab (anti-RSV), negative control antibody in the competition binding”, the “% Inhibition vs. irrelevant mAb, labeled detection antibody v16955 (negative control)” value in the assay with human NaPi2b (labeled detection antibody v16955 1 μg/mL) is 0%. Moreover, the “% Inhibition vs. irrelevant mAb, labeled detection antibody v18992 (MX35)” value in the assay with human NaPi2b (labeled detection antibody v18992 1 μg/mL) was determined as 0%. Moreover, the “% Inhibition vs. irrelevant mAb, labeled detection antibody v18993 (lifastuzumab)” value in the assay with human NaPi2b (labeled detection antibody v18993 1 μg/mL) is 0%. Besides, in the assay with human NaPi2b (labeled detection antibody v23855 1 μg/mL), the “% Inhibition vs. irrelevant mAb, labeled detection antibody v23855” value is on record as 0%.

Turning to “v18992: anti-NaPi2b reference humanized antibody MX35 [reference compound]”, the “Bmax (APC-A GeoMean), Cyno NaPi2b” value with cynomolgus NaPi2b is recorded as 2,365 APC-A GeoMean.

With “v18993: anti-NaPi2b reference humanized antibody lifastuzumab [reference compound]”, the “Bmax (APC-A GeoMean), Cyno NaPi2b” value in the assay with cynomolgus NaPi2b was 1,557 APC-A GeoMean.

As to “v22277-DL1: non-targeted control ADC of palivizumab v22277 with MC-GGFG-AM-DXd1 (DL1), DAR 8”, the negative-log EC50 (pEC50) with OVCAR-3 cells, in the assay on HCC-78 cells and in the assay on IGROV-1 cells was less than 7.30 each time.

Turning to “v22277-DL3: non-targeted control ADC of palivizumab v22277 with MC-VC-PABC-MMAE (DL3), DAR 4”, the negative-log EC50 (pEC50) (in general, the EC50 on a negative log10 scale, so that one unit is a factor of ten) is 8.03 in the assay on OVCAR-3 cells, 7.94 with HCC-78 cells and 8.15 in the assay with IGROV-1 cells.
